Patent publication US5955500A (G. D. Searle & Co., priority 1997, dated 1999)
Where “and” joins values, the source holds several entries; their conditions need not be identical. Equal entries are not always repeated. Where two headings read alike, the source gives them in different places.

Assays:
[1] = for Concentration in octanol / Concentration in water: pH 5, individual replicates
[2] = system: canine heart; conditions: for AH time / Heart rate / Mean arterial pressure: mean ± SE
Method: Fourteen adult mongrel dogs of either sex weighing between 19 and 25 kg were prepared for chronic electrophysiologic investigation by implanting epicardial electrodes and an indwelling aortic catheter. The dogs were fasted overnight and initially anesthetized with halothane on the day of surgery. After tracheal intubation, anesthesia was maintained with isoflurane and oxygen via positive pressure ventilation to keep end tidal carbon dioxide within the normal range. Muscular relaxation was induced by pancuronium. A right thoracotomy was performed in the fifth intercostal space. Three bipolar electrode pairs were sutured to the epicardial surface of the right atrial appendage and on the right and left ventricular apex (FIG. 5). A bipolar electrode was sutured to the right atrium close to the anatomical region of the sinoatrial node. A bipolar plunge electrode was placed into base of the interventricular septum to record a His bundle electrogram. An indwelling arterial catheter was placed into the aorta through the left femoral artery after surgical exposure of the artery at the inner side of the hind limb. All electrode leads were subcutaneously tunneled and exited through the skin between the scapulae. Incisions were closed in anatomic fashion and standard postoperative methods of analgesia were provided with 0.015 mg/kg of buprenorphine (Buprenex®, Reckitt & Colman, Hull, UK) and two times of 25 mg/kg cefazolin (Cefazolin Sodium®, SoloPak Laboratories, Elk Groove Village, Ill.) and dogs were allowed to recover from surgery for a period of seven days prior to testing.
Electrical signals from the bipolar electrodes, after suitable amplification in a custom built preamplifier (gain 1000), were filtered in a separate custom designed and built common mode rejection amplifier with a bandpass filter of 10-1000 Hz and individually adjusted for signal strength (maximal gain 400). […] Right atrial appendage (RA), right ventricular apex (RVA) and His bundle electrograms (HB) were recorded, simultaneously. […] All measurements of conduction times were made during spontaneous sinus rhythm.
The His bundle electrode (HBE) was advanced into the base of the interatrial septum from the aortic root. The electrode was advanced from a point located just behind and to the right of the origin of the right coronary artery. The HBE was slowly advanced parallel to the aorta, inferiorly and slightly anteriorly until a well discernible His potential was recorded. AV conduction (AH) interval was measured as the time difference (ms) between the onset of the initial rapid deflection in the RA electrogram to the beginning of the His potential in the HB electrogram. His-ventricular (HV) conduction time interval (ms) was measured from the beginning of the His potential (HBE) to the initial deflection of the QRS complex wave (earliest left ventricular activation) in a simultaneously recorded surface ECG lead II.
As an indicator of automaticity, sinus node recovery time (SNRT) was determined by pacing the right atrial appendage (30 s at 180 and 200 beats/min at 2 msec pulse duration; 2×threshold). SNRT was measured from the last pacing spike to the first spontaneous atrial activity on the His bundle electrogram after cessation of pacing (ms).
A timed extrastimulus (S2) was delivered 300 ms after the preceding pacing spike (S1).
Verapamil was dissolved in 5% dextrose and water ([…]).
During the postoperative period, each dog was trained to stand quietly in a sling during electrophysiological monitoring. Prior to measurement, electrical signals in each dog were monitored to verify the absence of spontaneous arrhythmias other-than normal respiratory sinus arrhythmias.
From the resting dog, 5 channel records were obtained at a sampling rate of 1 kHz per channel for 7 min to determine the following conduction intervals: AH, HV, QRS, QT and HR. A corrected QT interval [QTc=QT interval in ms/ (R-R interval in s)^1/2 ] was also calculated.

[3] = system: isolated working rat heart; conditions: S 100 ng/ml plus R 50-950 ng/ml cumulative
[4] = system: isolated working rat heart
[5] = S 100 ng/ml, R 950 ng/ml, R/S ratio 9.5

## COc1ccc(CCN(C)CCCC(C#N)(c2ccc(OC)c(OC)c2)C(C)C)cc1OC (racemic) [20/80S]
[1]; pH 5
  Eutectic compound identification (phase diagram based on Po/w): eutectic compound
[1]; listed as 80
  Concentration in octanol: 4160 ng/mL and 4490 ng/mL and 3810 ng/mL
  Concentration in water: 6950 ng/mL and 6930 ng/mL and 6920 ng/mL
[2]; 0.1 mg/kg i.v., 0 min
  AH time: 88 ± 5 ms
  Heart rate: 155 ± 13 beats per min
  Mean arterial pressure: 92 ± 4 mmHg
[2]; 0.1 mg/kg i.v., 1 min
  AH time: 100 ± 5 ms
  Heart rate: 143 ± 11 beats per min
  Mean arterial pressure: 97 ± 3 mmHg
[2]; 0.1 mg/kg i.v., 2 min
  AH time: 106 ± 5 ms
  Heart rate: 127 ± 10 beats per min
  Mean arterial pressure: 100 ± 3 mmHg
[2]; 0.1 mg/kg i.v., 3 min
  AH time: 107 ± 5 ms
  Heart rate: 124 ± 9 beats per min
  Mean arterial pressure: 100 ± 4 mmHg
[2]; 0.1 mg/kg i.v., 4 min
  AH time: 111 ± 6 ms
  Heart rate: 113 ± 11 beats per min
  Mean arterial pressure: 99 ± 4 mmHg
[2]; 0.1 mg/kg i.v., 5 min
  AH time: 112 ± 5 ms
  Heart rate: 111 ± 8 beats per min
  Mean arterial pressure: 101 ± 4 mmHg
[2]; 0.2 mg/kg i.v., 0 min
  AH time: 110 ± 10 ms
  Heart rate: 168 ± 10 beats per min
  Mean arterial pressure: 84 ± 3 mmHg
[2]; 0.2 mg/kg i.v., 1 min
  AH time: 126 ± 11 ms
  Heart rate: 166 ± 9 beats per min
  Mean arterial pressure: 87 ± 4 mmHg
[2]; 0.2 mg/kg i.v., 2 min
  AH time: 133 ± 10 ms
  Heart rate: 154 ± 8 beats per min
  Mean arterial pressure: 93 ± 5 mmHg
[2]; 0.2 mg/kg i.v., 3 min
  AH time: 140 ± 12 ms
  Heart rate: 141 ± 11 beats per min
  Mean arterial pressure: 94 ± 5 mmHg
[2]; 0.2 mg/kg i.v., 4 min
  AH time: 127 ± 14 ms
  Heart rate: 155 ± 16 beats per min
  Mean arterial pressure: 97 ± 5 mmHg
[2]; 0.2 mg/kg i.v., 5 min
  AH time: 130 ± 11 ms
  Heart rate: 146 ± 4 beats per min
  Mean arterial pressure: 98 ± 3 mmHg
[2]; 0.2 mg/kg i.v., listed as 20R/80S-verapamil
  Occurrence of AV conduction block: 5 animals
[2]; 0.4 mg/kg i.v., listed as 20R/80S-verapamil
  Occurrence of second and third degree AV conduction block: all
[2]; compared with any other groups
  Recovery of the decrease in MAP: slower
[2]; dog, in vivo
  Peak effect on HR, in words: drastic increase in HR
  QTc interval compared with 100R-verapamil, in words: significantly increased compared with 100R-verapamil
[2]; increase in HR against drop in MAP
  Interaction between MAP and HR (multiple linear regression), in words: greatest rate of increase in HR as opposed to a drop in MAP

## COc1ccc(CCN(C)CCCC(C#N)(c2ccc(OC)c(OC)c2)C(C)C)cc1OC (racemic) [R/S (0.5)]
[3]
  Cardiac output (CO), significance vs predrug: n.s.
  Heart rate (HR), significance vs predrug: n.s.

## COc1ccc(CCN(C)CCCC(C#N)(c2ccc(OC)c(OC)c2)C(C)C)cc1OC (racemic) [R/S (2.0)]
[3]
  Cardiac output (CO), significance vs predrug: n.s.
  Heart rate (HR), significance vs predrug: n.s.
  Peak systolic pressure (PSP), significance vs predrug: n.s.

## COc1ccc(CCN(C)CCCC(C#N)(c2ccc(OC)c(OC)c2)C(C)C)cc1OC (racemic) [R/S (4.5)]
[3]
  Heart rate (HR), significance vs predrug: n.s.
  Peak systolic pressure (PSP), significance vs predrug: n.s.

## COc1ccc(CCN(C)CCCC(C#N)(c2ccc(OC)c(OC)c2)C(C)C)cc1OC (racemic) [R/S (9.5)]
[4]; R/S ratio 9.5
  Effect of mixture on heart rate, in words: additive
[4]; [5]
  Peak systolic pressure (PSP), significance vs predrug: n.s.

## COc1ccc(CCN(C)CCC[C@@](C#N)(c2ccc(OC)c(OC)c2)C(C)C)cc1OC [S-verapamil, reference compound]
[4]; S 100 ng/ml vs R 950 ng/ml
  Reduction of peak systolic pressure and cardiac output, in words: more effective at reducing peak systolic pressure (FIG. 2b) as well as cardiac output
[4]; S 100 ng/ml, R 950 ng/ml
  Nature of cardiac effect (inotropic / chronotropic): primarily an inotropic drug
[4]; [5]
  Heart rate (HR), significance vs predrug: n.s.
[1]; listed as 100
  Concentration in octanol: 5150 ng/mL and 5290 ng/mL and 5530 ng/mL
  Concentration in water: 4080 ng/mL and 4880 ng/mL and 6220 ng/mL
